These results are taken from patent US4725583A, “Functionalized peptidylaminoalcohols” (Abbott Laboratories, priority 1986, dated 1988).

In the test the target is T1, human renal renin (Homo sapiens, UniProt P00797).
T1 construct: human renal renin, free from acid proteolytic activity; from tissue
T1 sequence (P00797 67-406): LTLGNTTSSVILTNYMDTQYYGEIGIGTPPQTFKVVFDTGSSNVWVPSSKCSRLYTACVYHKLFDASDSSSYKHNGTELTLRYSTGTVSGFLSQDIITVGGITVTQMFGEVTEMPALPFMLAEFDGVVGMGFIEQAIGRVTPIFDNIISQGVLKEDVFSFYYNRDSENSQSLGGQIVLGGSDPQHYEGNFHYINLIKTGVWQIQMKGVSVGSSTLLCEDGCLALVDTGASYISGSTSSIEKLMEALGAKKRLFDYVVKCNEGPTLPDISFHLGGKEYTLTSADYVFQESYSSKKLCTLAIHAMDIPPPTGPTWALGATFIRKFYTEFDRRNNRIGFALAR
In words: In vitro inhibition of human renal renin (angiotensin I formation measured by radioimmunoassay). It is filed as biochemical. To be noted: human renal renin with human renin substrate (angiotensinogen), 37° C., pH 6.0.
As usually defined, the IC50 is the point on the concentration scale where inhibition reaches its midpoint. A lower IC50 goes with greater potency in that assay. As for `CC(C)CC(=O)C(O)[C@H](CC1CCCCC1)NC(=O)[C@H](Cc1cnc[nH]1)NC(=O)[C@H](Cc1ccccc1)NC(=O)OC(C)(C)C` (stereo partly drawn) [Example 19, Boc-Phe-His Amide of (2S)-Amino-1-cyclohexyl-3-hydroxy-6-methylheptan-4-one], the IC50 amounted to 10 nM.
For `C[C@H](NC(=O)[C@H](Cc1ccccc1)NC(=O)OC(C)(C)C)C(=O)N[C@@H](CC1CCCCC1)[C@@H](O)CBr` [Example 16, Boc-Phe-Ala Amide of (2R,3S)-3-Amino-1-bromo-4-cyclohexyl-2-hydroxybutane] the value was 700 nM; for `C[C@H](NC(=O)[C@H](Cc1ccccc1)NC(=O)OC(C)(C)C)C(=O)N[C@@H](CC1CCCCC1)[C@@H](O)CCl` [Example 14, Boc-Phe-Ala Amide of (2R,3S)-3-Amino-1-chloro-4-cyclohexyl-2-hydroxybutane], 400 nM.
The value for `CC(C)C[C@H](NC(=O)[C@H](C)NC(=O)[C@H](Cc1ccccc1)NC(=O)OC(C)(C)C)C(O)C=O` (stereo partly drawn) [Example 3, Boc-Phe-Ala Amide of (3S)-Amino-2-hydroxy-5-methylhexanal] was 10 nM.
